Measured values taken from US9676732B2, “Ethynyl derivatives” (Hoffmann-La Roche Inc., priority 2013, dated 2017).

Molecular target: human mGlu4 receptor (Homo sapiens (Human), UniProt Q14833)
Assay: Ca2+ mobilization in vitro assay on recombinant human mGlu4 expressed in HEK293 cells (mGlu4 PAM)
Type: cell-based
Details: for Eff. (%): maximal response in % of the maximal stimulatory effect obtained with saturating concentrations of L-AP4; for EC50: HEK293 cells stably expressing human mGlu4, L-AP4 added at EC20, read-out: EC50 (nM) mGlu4PAM
Protocol: Determination of EC50 Values Using a Ca2+ Mobilization In Vitro Assay on Recombinant Human mGlu4 Expressed in HEK293 Cells:
A monoclonal HEK-293 cell line stably transfected with a cDNA encoding for the human mGlu4 receptor was generated; for the work with mGlu4 Positive Allosteric Modulators (PAMs), a cell line with low receptor expression levels and low constitutive receptor activity was selected to allow the differentiation of agonistic versus PAM activity. Cells were cultured according to standard protocols (Freshney, 2000) in Dulbecco's Modified Eagle Medium with high glucose supplemented with 1 mM glutamine, 10% (vol/vol) heat-inactivated bovine calf serum, Penicillin/Streptomycin, 50 μg/ml hygromycin and 15 μg/ml blasticidin (all cell culture reagents and antibiotics from Invitrogen, Basel, Switzerland).
About 24 hrs before an experiment, 5×10^4 cells/well were seeded in poly-D-lysine coated, black/clear-bottomed 96-well plates. The cells were loaded with 2.5 μM Fluo-4AM in loading buffer (1×HBSS, 20 mM HEPES) for 1 hr at 37° C. and washed five times with loading buffer. The cells were transferred into a Functional Drug Screening System 7000 (Hamamatsu, Paris, France), and 11 half logarithmic serial dilutions of test compound at 37° C. were added and the cells were incubated for 10-30 min. with on-line recording of fluorescence. Following this pre-incubation step, the agonist (2S)-2-amino-4-phosphonobutanoic acid (L-AP4) was added to the cells at a concentration corresponding to EC20 with on-line recording of fluorescence; in order to account for day-to-day variations in the responsiveness of cells, the EC20 of L-AP4 was determined immediately ahead of each experiment by recording of a full dose-response curve of L-AP4.
Responses were measured as peak increase in fluorescence minus basal (i.e. fluorescence without addition of L-AP4), normalized to the maximal stimulatory effect obtained with saturating concentrations of L-AP4. Graphs were plotted with the % maximal stimulatory using XLfit, a curve fitting program that iteratively plots the data using Levenburg Marquardt algorithm. The single site competition analysis equation used was y=A+((B−A)/(1+((x/C)D))), where y is the % maximal stimulatory effect, A is the minimum y, B is the maximum y, C is the EC50, x is the log 10 of the concentration of the competing compound and D is the slope of the curve (the Hill Coefficient). From these curves the EC50 (drug concentration at which 50% of the maximal receptor activation was achieved), the Hill coefficient as well as the maximal response in % of the maximal stimulatory effect obtained with saturating concentrations of L-AP4 were calculated (see FIG. 1).
A depression of the signal observed after addition of the EC20 concentration of L-AP4 was indicative of an inhibitory activity of the test compound. • FIG. 1: Illustration of the experimental outline for mGlu4 PAM Ca2+ mobilization screening assay and the determination of EC50 and % Emax values.

Chain of human mGlu4 receptor (Q14833 33-912): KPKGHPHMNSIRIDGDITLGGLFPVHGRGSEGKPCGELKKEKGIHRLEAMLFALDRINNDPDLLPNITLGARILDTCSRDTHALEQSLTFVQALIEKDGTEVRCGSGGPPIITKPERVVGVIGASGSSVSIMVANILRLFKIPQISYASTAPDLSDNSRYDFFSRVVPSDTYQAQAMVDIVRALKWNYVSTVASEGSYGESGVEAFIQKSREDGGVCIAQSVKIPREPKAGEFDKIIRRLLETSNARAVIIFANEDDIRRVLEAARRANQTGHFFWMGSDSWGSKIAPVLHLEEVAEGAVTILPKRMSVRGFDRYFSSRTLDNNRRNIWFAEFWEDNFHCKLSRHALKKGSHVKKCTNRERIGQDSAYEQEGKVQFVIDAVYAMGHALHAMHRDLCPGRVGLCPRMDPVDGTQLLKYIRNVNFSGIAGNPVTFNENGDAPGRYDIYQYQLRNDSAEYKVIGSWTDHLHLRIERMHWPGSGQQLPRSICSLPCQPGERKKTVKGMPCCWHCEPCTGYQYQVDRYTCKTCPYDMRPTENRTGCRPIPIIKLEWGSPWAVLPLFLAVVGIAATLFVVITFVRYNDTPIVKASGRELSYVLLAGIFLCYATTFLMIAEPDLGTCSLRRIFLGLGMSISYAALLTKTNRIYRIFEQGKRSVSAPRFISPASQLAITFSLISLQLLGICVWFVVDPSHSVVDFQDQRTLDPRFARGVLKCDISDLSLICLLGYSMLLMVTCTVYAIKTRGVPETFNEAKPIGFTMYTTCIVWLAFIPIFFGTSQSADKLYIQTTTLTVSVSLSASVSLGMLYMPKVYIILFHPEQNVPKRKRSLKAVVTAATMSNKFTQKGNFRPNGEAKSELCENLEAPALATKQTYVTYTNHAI

Eff. (%)	EC50	Compound
85%		O=c1[nH]c2ncsc2c(=O)n1-c1c(F)cc(C#Cc2ccccc2)cc1F [Example 31, 6-[2,6-Difluoro-4-(2-phenylethynyl)phenyl]-4H-thiazolo[4,5-d]pyrimidine-5,7-dione]
104%	33 nM	Cn1c(=O)n(-c2c(F)cc(C#Cc3ccccc3)cc2F)c(=O)c2scnc21 [Example 32, 6-[2,6-Difluoro-4-(2-phenylethynyl)phenyl]-4-methyl-thiazolo[4,5-d]pyrimidine-5,7-dione]
86%	47 nM	Cn1cc2c(n1)c(=O)n(-c1c(F)cc(C#Cc3ccccc3)cc1F)c(=O)n2C [Example 33, 6-[2,6-Difluoro-4-(2-phenylethynyl)phenyl]-2,4-dimethyl-pyrazolo[4,3-d]pyrimidine-5,7-dione]
85%	74 nM	Cn1ncc2c1c(=O)n(-c1c(F)cc(C#Cc3ccccc3)cc1F)c(=O)n2C [Example 34, 6-[2,6-Difluoro-4-(2-phenylethynyl)phenyl]-1,4-dimethyl-pyrazolo[4,3-d]pyrimidine-5,7-dione]
89%	30 nM	CC(C)n1c(=O)n(-c2c(F)cc(C#Cc3ccccc3)cc2F)c(=O)c2nn(C)cc21 [Example 35, 6-[2,6-Difluoro-4-(2-phenylethynyl)phenyl]-4-isopropyl-2-methyl-pyrazolo[4,3-d]pyrimidine-5,7-dione]
89%	155 nM	CC(C)n1c(=O)n(-c2c(F)cc(C#Cc3ccccc3)cc2F)c(=O)c2c1cnn2C [Example 36, 6-[2,6-Difluoro-4-(2-phenylethynyl)phenyl]-4-isopropyl-1-methyl-pyrazolo[4,3-d]pyrimidine-5,7-dione]
73%	88 nM	CC(C)n1c(=O)n(-c2c(F)cc(C#Cc3ccccc3)cc2F)c(=O)c2cccnc21 [Example 37, 3-[2,6-Difluoro-4-(2-phenylethynyl)phenyl]-1-isopropyl-pyrido[2,3-d]pyrimidine-2,4-dione]
108%	108 nM	Cc1ccnc2c(=O)n(-c3c(F)cc(C#Cc4ccccc4)cc3F)c(=O)n(C)c12 [Example 38, 3-[2,6-Difluoro-4-(2-phenylethynyl)phenyl]-1,8-dimethyl-pyrido[3,2-d]pyrimidine-2,4-dione]
107%	17 nM	Cn1c(=O)n(-c2c(F)cc(C#Cc3ccccc3)cc2F)c(=O)c2nsnc21 [Example 39, 6-[2,6-Difluoro-4-(2-phenylethynyl)phenyl]-4-methyl-[1,2,5]thiadiazolo[3,4-d]pyrimidine-5,7-dione]
104%	23 nM	CC(C)n1c(=O)n(-c2c(F)cc(C#Cc3ccccc3)cc2F)c(=O)c2nsnc21 [Example 40, 6-[2,6-Difluoro-4-(2-phenylethynyl)phenyl]-4-isopropyl-[1,2,5]thiadiazolo[3,4-d]pyrimidine-5,7-dione]
98%	231 nM	Cc1cccc2c1c(=O)n(-c1ccc(C#Cc3ccccc3)cc1Cl)c(=O)n2C [Example 41, 3-[2-Chloro-4-(2-phenylethynyl)phenyl]-1,5-dimethyl-quinazoline-2,4-dione]
80%	83 nM	CC(C)n1c(=O)n(-c2c(F)cc(C#Cc3cccnc3)cc2Cl)c(=O)c2ccccc21 [Example 42, 3-[2-Chloro-6-fluoro-4-[2-(3-pyridyl)ethynyl]phenyl]-1-isopropyl-quinazoline-2,4-dione]
107%	74 nM	Cc1cccc2c(=O)n(-c3c(F)cc(C#Cc4cccnc4)cc3Cl)c(=O)n(C)c12 [Example 43, 3-[2-Chloro-6-fluoro-4-[2-(3-pyridyl)ethynyl]phenyl]-1,8-dimethyl-quinazoline-2,4-dione]
180%	372 nM	Cn1c(=O)n(-c2ncc(C#Cc3ccccc3)cc2Cl)c(=O)c2ccccc21 [Example 44, 3-[3-Chloro-5-(2-phenylethynyl)-2-pyridyl]-1-methyl-quinazoline-2,4-dione]
92%	137 nM	CC(C)n1c(=O)n(-c2ncc(C#Cc3ccccc3)cc2Cl)c(=O)c2ccccc21 [Example 45, 3-[3-Chloro-5-(2-phenylethynyl)-2-pyridyl]-1-isopropyl-quinazoline-2,4-dione]
113%	141 nM	Cc1cccc2c(=O)n(-c3ncc(C#Cc4ccccc4)cc3Cl)c(=O)n(C)c12 [Example 46, 3-[3-Chloro-5-(2-phenylethynyl)-2-pyridyl]-1,8-dimethyl-quinazoline-2,4-dione]
110%	187 nM	O=c1c2cccc3c2n(c(=O)n1-c1ncc(C#Cc2ccccc2)cc1Cl)CC3 [Example 47, 2-(3-Chloro-5-(phenylethynyl)pyridin-2-yl)-5,6-dihydro-1H-pyrrolo[3,2,1-ij]quinazoline-1,3(2H)-dione]
95%	175 nM	Cn1c(=O)n(-c2ncc(C#Cc3ccccc3)cc2C(F)(F)F)c(=O)c2ccccc21 [Example 48, 1-Methyl-3-[5-(2-phenylethynyl)-3-(trifluoromethyl)-2-pyridyl]quinazoline-2,4-dione]
111%	302 nM	Cc1cccc2c(=O)n(-c3ncc(C#Cc4ccccc4)cc3F)c(=O)n(C)c12 [Example 49, 3-[3-Fluoro-5-(2-phenylethynyl)-2-pyridyl]-1,8-dimethyl-quinazoline-2,4-dione]
110%	499 nM	COCCn1c(=O)n(-c2ccc(C#Cc3ccccc3)cc2Cl)c(=O)c2ccccc21 [Example 50, 3-[2-Chloro-4-(2-phenylethynyl)phenyl]-1-(2-methoxyethyl)quinazoline-2,4-dione]
127%	164 nM	Cn1c(=O)n(-c2ccc(C#Cc3ccccc3)cc2Cl)c(=O)c2sc(N3CCOCC3)nc21 [Example 51, 6-[2-Chloro-4-(2-phenylethynyl)phenyl]-4-methyl-2-morpholino-thiazolo[4,5-d]pyrimidine-5,7-dione]
110%	200 nM	Cn1c(=O)n(-c2ccc(C#Cc3ccccc3)cc2Cl)c(=O)c2scnc21 [Example 52, 6-(2-Chloro-4-phenylethynyl-phenyl)-4-methyl-4H-thiazolo[4,5-d]pyrimidine-5,7-dione]
123%	102 nM	O=c1c2ccccc2n(C2CCC2)c(=O)n1-c1ccc(C#Cc2ccccc2)cc1Cl [Example 53, 3-[2-Chloro-4-(2-phenylethynyl)phenyl]-1-cyclobutyl-quinazoline-2,4-dione]
97%	179 nM	CC(C)c1cccc2c(=O)n(-c3ccc(C#Cc4ccccc4)cc3Cl)c(=O)n(C)c12 [Example 54, 3-[2-Chloro-4-(2-phenylethynyl)phenyl]-8-isopropyl-1-methyl-quinazoline-2,4-dione]
123%	766 nM	CC(C)n1c(=O)n(-c2ccc(C#Cc3ccccc3)cn2)c(=O)c2ccccc21 [Example 55, 1-Isopropyl-3-[5-(2-phenylethynyl)-2-pyridyl]quinazoline-2,4-dione]
120%	121 nM	CC(C)n1c(=O)n(-c2ncc(C#Cc3ccccc3)cc2F)c(=O)c2nn(C)cc21 [Example 56, 6-[3-Fluoro-5-(2-phenylethynyl)-2-pyridyl]-4-isopropyl-2-methyl-pyrazolo[4,3-d]pyrimidine-5,7-dione]
